According to ChEMBL document CHEMBL1124119, “(+/-)-4-tert-butyl-3-cyano-1-(4-ethynylphenyl)-2,6,7-trioxabi cyclo[2.2.2]octane: synthesis of a remarkably potent GABAA receptor antagonist” (J Med Chem, 1988):

Assays:
[1] = target: T1, GABA-A receptor; anion channel (Mus musculus) (UniProt Q8BHJ7+P26048+Q8QZW7+P50571+Q9R0Y8+P22723+A2AMW3+P62812+Q9JLF1+P26049+P22933+Q9D6F4+P63080+P27681+P16305); test: Ex vivo inhibition of [35S]TBPS binding to mouse brain membranes in the presence of Diazepam after 30 min; format: tissue-based; conditions: Membrane
[2] = target: Gamma-aminobutyric acid receptor subunit gamma-1 (Rattus norvegicus, UniProt P23574); test: Inhibition of GABA-stimulated 36Cl- uptake by membrane vesicles of rat cerebral cortex; format: functional, tissue-based
Sequence of Gamma-aminobutyric acid receptor subunit gamma-1 (P23574 whole entry): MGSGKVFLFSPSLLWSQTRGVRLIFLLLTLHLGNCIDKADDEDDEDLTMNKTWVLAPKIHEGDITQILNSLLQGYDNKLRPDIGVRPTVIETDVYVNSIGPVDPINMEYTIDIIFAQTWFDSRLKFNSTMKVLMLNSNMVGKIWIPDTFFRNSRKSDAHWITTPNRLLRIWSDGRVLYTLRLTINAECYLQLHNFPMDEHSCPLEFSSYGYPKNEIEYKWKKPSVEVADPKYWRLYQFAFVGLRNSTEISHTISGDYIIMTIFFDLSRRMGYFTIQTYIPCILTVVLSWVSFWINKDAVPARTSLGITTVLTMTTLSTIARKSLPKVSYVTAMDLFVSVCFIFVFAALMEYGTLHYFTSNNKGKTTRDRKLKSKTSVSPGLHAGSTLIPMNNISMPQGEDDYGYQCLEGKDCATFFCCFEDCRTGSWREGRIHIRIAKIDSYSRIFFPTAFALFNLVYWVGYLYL

[3] = target: T1, GABA-A receptor; anion channel (Mus musculus); test: Ex vivo inhibition of [35S]TBPS binding to mouse brain membranes after 30 min; format: tissue-based; conditions: Membrane
[4] = target: GABA-A receptor; anion channel; test: In vitro inhibition of [35S]TBPS binding to EDTA/water-dialyzed mouse brain P2 membranes; format: tissue-based
[5] = target: T1, GABA-A receptor; anion channel (Mus musculus); test: Ex vivo inhibition of [35S]TBPS binding to mouse brain membranes in the presence of phenobarbital after 30 min; format: tissue-based; conditions: Membrane
[6] = target: GABA-A receptor; anion channel; test: In vitro inhibition of [35S]-TBPS binding to EDTA/water-dialyzed mouse brain P2 membranes; format: tissue-based

SMILES	inhibition [1] [%]	IC50 [2] [nM]	inhibition [3] [%]	IC50 [4] [nM]	inhibition [5] [%]	IC50 [6] [nM]
C#Cc1ccc(C23OCC(C(C)(C)C)(CO2)C(C#N)O3)cc1 (configuration not stated)	59	25	68	0.25	61	
CC(C)(C)C12COC(c3ccc(C#N)cc3)(OC1)OC2		40				2.5
